Test results: ChEMBL document CHEMBL4043197, “Quinazoline-1-deoxynojirimycin hybrids as high active dual inhibitors of EGFR and α-glucosidase” (Bioorg Med Chem Lett, 2017)
Where a name gives a salt, the structure may show the parent alone.

What was measured:
[1] = target: T1, Epidermal growth factor receptor (Homo sapiens, UniProt P00533); conditions: at 50 nM
Description: Inhibition of wild type recombinant EGFR (unknown origin) at 50 nM by ELISA relative to control

[2] = target: T1, Epidermal growth factor receptor; assay: Inhibition of wild type recombinant EGFR (unknown origin) by ELISA
[3] = Inhibition of recombinant alpha-glucosidase (unknown origin) using PNP-G as substrate preincubated for 5 mins followed by substrate addition measured after 30 mins by spectrophotometric analysis; set-up: species or system Homo sapiens

T1 sequence (P00533 whole entry): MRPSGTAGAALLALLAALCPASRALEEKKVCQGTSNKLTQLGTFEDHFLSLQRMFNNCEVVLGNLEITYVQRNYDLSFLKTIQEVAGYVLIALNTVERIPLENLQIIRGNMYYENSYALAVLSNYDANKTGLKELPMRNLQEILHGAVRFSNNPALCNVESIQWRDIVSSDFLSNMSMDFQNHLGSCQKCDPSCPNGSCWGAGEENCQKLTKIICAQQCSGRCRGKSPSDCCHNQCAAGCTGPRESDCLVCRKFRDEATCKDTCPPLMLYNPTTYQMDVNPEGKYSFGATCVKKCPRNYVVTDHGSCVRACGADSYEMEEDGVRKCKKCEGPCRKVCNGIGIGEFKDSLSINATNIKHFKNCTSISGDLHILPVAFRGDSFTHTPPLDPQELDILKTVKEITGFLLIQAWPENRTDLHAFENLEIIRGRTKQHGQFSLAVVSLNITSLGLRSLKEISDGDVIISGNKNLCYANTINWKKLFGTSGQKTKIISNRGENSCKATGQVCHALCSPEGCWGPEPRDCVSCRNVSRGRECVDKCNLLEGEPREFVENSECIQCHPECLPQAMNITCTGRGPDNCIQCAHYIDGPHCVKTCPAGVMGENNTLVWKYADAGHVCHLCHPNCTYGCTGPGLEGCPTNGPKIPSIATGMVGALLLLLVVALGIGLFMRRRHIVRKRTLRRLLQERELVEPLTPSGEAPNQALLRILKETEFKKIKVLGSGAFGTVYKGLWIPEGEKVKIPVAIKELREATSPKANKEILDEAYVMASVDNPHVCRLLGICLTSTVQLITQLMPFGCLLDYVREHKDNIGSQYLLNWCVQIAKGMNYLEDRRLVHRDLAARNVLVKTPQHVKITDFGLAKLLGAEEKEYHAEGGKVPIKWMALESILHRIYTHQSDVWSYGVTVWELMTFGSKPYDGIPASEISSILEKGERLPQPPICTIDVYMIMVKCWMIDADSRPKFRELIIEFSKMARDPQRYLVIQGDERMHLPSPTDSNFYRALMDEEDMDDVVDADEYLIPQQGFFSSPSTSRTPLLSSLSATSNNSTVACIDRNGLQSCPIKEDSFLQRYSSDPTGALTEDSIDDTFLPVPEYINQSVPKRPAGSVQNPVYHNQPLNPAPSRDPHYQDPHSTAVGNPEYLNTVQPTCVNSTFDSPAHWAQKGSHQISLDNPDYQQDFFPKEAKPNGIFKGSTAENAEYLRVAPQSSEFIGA

SMILES | inhibition [1] | IC50 [2] | IC50 [3]
COc1cc2ncnc(Nc3ccc(F)c(Cl)c3)c2cc1OCCCN1C[C@H](O)[C@@H](O)[C@H](O)[C@H]1CO | 83.5% | 10.7 nM | 4340 nM
COc1cc2c(Nc3ccc(OCc4cccc(F)c4)c(Cl)c3)ncnc2cc1OCCCN1C[C@H](O)[C@@H](O)[C@H](O)[C@H]1CO | 78.2% | 4.53 nM | 140 nM
OC[C@@H]1[C@@H](O)[C@H](O)[C@@H](O)CN1Cc1ccc(-c2ccc3ncnc(Nc4ccc(F)c(Cl)c4)c3c2)o1 | 78% |  | 
COc1cc2ncnc(Nc3ccc(F)c(Cl)c3)c2cc1OCCN1C[C@H](O)[C@@H](O)[C@H](O)[C@H]1CO | 65.2% |  | 8400 nM
COc1cc2ncnc(Nc3ccc(OCc4cccc(F)c4)c(Cl)c3)c2cc1OCCN1C[C@H](O)[C@@H](O)[C@H](O)[C@H]1CO | 66.5% |  | 64100 nM
COc1cc2ncnc(Nc3ccc(OCc4cccc(F)c4)c(Cl)c3)c2cc1OCCCN1C[C@H](O)[C@@H](O)[C@H](O)[C@H]1CO | 74.9% |  | 21200 nM
OC[C@H]1NC[C@H](O)[C@@H](O)[C@@H]1O [DUVOGLUSTAT HYDROCHLORIDE] |  |  | 70 nM
C#Cc1cccc(Nc2ncnc3ccc(-c4ccc(CN5C[C@H](O)[C@@H](O)[C@H](O)[C@H]5CO)o4)cc23)c1 | 27.1% |  | 
OCCN1C[C@H](O)[C@@H](O)[C@H](O)[C@H]1CO [MIGLITOL] |  |  | 2430 nM
C#Cc1cccc(Nc2ncnc3cc(OC)c(OCCN4C[C@H](O)[C@@H](O)[C@H](O)[C@H]4CO)cc23)c1 | 56.4% |  | 7180 nM
C#Cc1cccc(Nc2ncnc3cc(OC)c(OCCCN4C[C@H](O)[C@@H](O)[C@H](O)[C@H]4CO)cc23)c1 | 79.6% |  | 6190 nM
C#Cc1cccc(Nc2ncnc3cc(OCCN4C[C@H](O)[C@@H](O)[C@H](O)[C@H]4CO)c(OC)cc23)c1 | 53.5% |  | 6250 nM
COc1cc2c(Nc3ccc(F)c(Cl)c3)ncnc2cc1OCCCN1C[C@H](O)[C@@H](O)[C@H](O)[C@H]1CO | 85.3% | 1.79 nM | 390 nM
C#Cc1cccc(Nc2ncnc3cc(OCCCN4C[C@H](O)[C@@H](O)[C@H](O)[C@H]4CO)c(OC)cc23)c1 | 83.2% | 4.87 nM | 90 nM
COc1cc2c(Nc3ccc(F)c(Cl)c3)ncnc2cc1OCCN1C[C@H](O)[C@@H](O)[C@H](O)[C@H]1CO | 53.7% |  | 250 nM
OC[C@@H]1[C@@H](O)[C@H](O)[C@@H](O)CN1Cc1ccc(-c2ccc3ncnc(Nc4ccc(OCc5cccc(F)c5)c(Cl)c4)c3c2)o1 | 50.6% |  | 
